Details: CMD-3D layer without HSA, PBS buffer, drug cM1 0.00-50 μM, DMSO 0.5%, 5%
Description: The functional layer AF1 of the second sample region REG2 was otherwise similar to the functional layer AF1 of the first sample region REG1, except that the functional layer AF1 of the first sample region REG1 comprised HSA. […] B0b denotes the input beam impinging on the second sample region REG2, and B1b denotes the reflected beam reflected from the second sample region REG2. ZV2 denotes the sample volume of the second sample region REG2.
Prior to the second test, the functional layer AF1 of the second sample region was formed by a method, which comprised: • attaching a layer of CMD-3D to the metal layer 120 of the sensor, • washing the layer of CMD-3D with an aqueous solution, which comprised 2M NaCl and 10 mM NaOH, • activating the layer of CMD-3D with an activation solution, which comprised EDC and NHS. • treating the layer of CMD-3D with an aqueous solution, which comprised MES (the bulk concentration of MES was 5 mM and pH 5.0), • deactivating the functional layer AF1 by exposing it to an aqueous solution, which comprised ethanolamine (pH 8.0). • washing the functional layer AF1 with an aqueous solution, which comprised 50 mM NaOH. […]
The curve ϕAUX,CH2(t) may be calculated e.g. by using a modified equation (7h), where the parameter C may be determined by using a modified equation (7d), and the parameter D may be determined by using a modified equation (7i). […]

Which “average value of the auxiliary angle ϕAUX,CH2(t) of the second sample region (reference, no HSA)” value does the source give for indomethacine here?
The value was “substantially independent of the bulk concentration cM1”.
